Assay results published in the supplement of paper PMC10011410.
± gives the standard deviation of the averaged measurements.

Tests used:
U-2 OS [1] = assay: relative cell count vs DMSO (cell painting) (fraction of DMSO control); higher = more cells remaining (less cytotoxic); conditions: 24 h
In short: (§1)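 Images taken on an Opera Phenix of U-2 OS cells stained with MitoTracker, concanavalin A, phalloidin, wheat germ agglutinin, Hoechst and SYTO 14 were processed in CellProfiler, with features normalized to DMSO cells on the same plate. The cells, about 1,500 per well in 384-well plates, had been treated by pin tool for 24 h at 37 °C, usually at six 2-fold concentrations from 20 μM to 625 nM. The activity score measures Mahalanobis distance from DMSO wells, and cell count is expressed relative to DMSO wells. Each value averages four replicate plates.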

U-2 OS [2] = assay: cell painting activity score (Mahalanobis distance from DMSO wells); higher = stronger morphological phenotype; conditions: 24 h
In short: as §1

U-2 OS [3] = assay: AUC of culture confluence over time (live-cell imaging) (AUC (confluence % x time)); higher = more confluent culture (less growth inhibition)
In short: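 The value is the area under the curve of confluence plotted against time. U-2 OS cells in F-12K medium with 10% FBS were seeded at 750 per well in 384-well plates, then treated by pin tool 24 h later, most compounds at 20, 10 and 5 μM with 0.2% DMSO. At 37 °C, an Incucyte S3 with a 10x objective imaged the wells every 4 h for up to 60 h.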

U-2 OS [4] = assay: cell viability (CellTiter-Glo) relative to DMSO (% of control); higher = more viable; conditions: 24 h
Experimental: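 Cell viability of U-2 OS cells by CellTiter-Glo after 24 h compound treatment at 5, 10 and 20 uM (some at 40 and 80 uM), measured in parallel with the glutathione assay, as percent of DMSO control. Five technical replicate plates, averaged.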

U-2 OS [5] = assay: intracellular GSH:GSSG ratio (calculated); higher = more reduced glutathione pool; conditions: 24 h
Experimental: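 Intracellular glutathione in U-2 OS cells after 24 h compound treatment at 5, 10 and 20 uM (some at 40 and 80 uM). Total glutathione and GSSG were measured with the GSH/GSSG-Glo kit, and the GSH:GSSG ratio was calculated. Mean of five technical replicate plates.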

U-2 OS [6] = assay: total intracellular glutathione (GSH + GSSG) relative to DMSO (% of control); higher = more glutathione; conditions: 24 h
Experimental: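 Total intracellular glutathione (GSH + GSSG) in U-2 OS cells by GSH/GSSG-Glo after 24 h compound treatment at 5, 10 and 20 uM (some at 40 and 80 uM), as percent of DMSO control. Five technical replicate plates, averaged.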

SMILES | relative cell count (U-2 OS [1]; 0.625 µM) | relative cell count (U-2 OS [1]; 1.25 µM) | relative cell count (U-2 OS [1]; 2.5 µM) | relative cell count (U-2 OS [1]; 5 µM) | relative cell count (U-2 OS [1]; 10 µM) | relative cell count (U-2 OS [1]; 20 µM) | cell painting activity score (U-2 OS [2]; 0.625 µM) | cell painting activity score (U-2 OS [2]; 1.25 µM) | cell painting activity score (U-2 OS [2]; 2.5 µM) | cell painting activity score (U-2 OS [2]; 5 µM) | cell painting activity score (U-2 OS [2]; 10 µM) | cell painting activity score (U-2 OS [2]; 20 µM) | AUC of culture confluence over time (U-2 OS [3]; 5 µM) | AUC of culture confluence over time (U-2 OS [3]; 10 µM) | AUC of culture confluence over time (U-2 OS [3]; 20 µM) | cell viability (U-2 OS [4]; 5 µM) | cell viability (U-2 OS [4]; 10 µM) | cell viability (U-2 OS [4]; 20 µM) | intracellular GSH:GSSG ratio (U-2 OS [5]; 5 µM) | intracellular GSH:GSSG ratio (U-2 OS [5]; 10 µM) | intracellular GSH:GSSG ratio (U-2 OS [5]; 20 µM) | total intracellular glutathione (U-2 OS [6]; 5 µM) | total intracellular glutathione (U-2 OS [6]; 10 µM) | total intracellular glutathione (U-2 OS [6]; 20 µM)
CCCC1(c2ccccc2)NC(=O)N(CC(=O)N(C)Cc2c(F)cccc2Cl)C1=O (stereo not given) | 1.02 | 0.978 | 1.04 | 1.03 | 0.991 | 1.04 | 4.41 | 4.87 | 5.72 | 6.63 | 7.72 | 8.18 | 53.9 | 48.4 | 48.7 | 101 ± 3.2 | 102 ± 2.8 | 100 ± 2.9 | 20.7 | 26.8 | 22.5 | 102 ± 4.9 | 104 ± 2.5 | 101 ± 3.9
O=S1(=O)C=C(Sc2nn(-c3ccccc3)c(=S)s2)c2ccccc21 | 0.875 | 0.647 | 0.35 | 0.223 | 0.247 | 0.259 | 11.4 | 11.7 | 19.6 | 17.8 | 20.4 | 18.2 | 17.7 | 15.9 | 16.3 | 38.8 ± 8.9 | 30.5 ± 2.7 | 36.6 ± 8.1 | 11.7 | 7.07 | 2.96 | 65 ± 9.1 | 43.8 ± 9 | 29.2 ± 4.9
CC1(C)CCC2=C(O1)c1ccccc1C(=O)C2=O | 1.05 | 0.993 | 1.08 | 0.933 | 0.767 | 0.227 | 3.9 | 4.86 | 5.01 | 5.34 | 9.42 | 18.4 | 27 | 19.8 | 20.1 | 79.8 ± 7.4 | 57 ± 15 | 17 ± 33 | 15.5 | 11.1 | 3.75 | 71.8 ± 4.9 | 56.2 ± 3.8 | 6.31 ± 1.1
COc1ccc(N(C(=O)CCl)C(C(=O)NCCc2ccccc2)c2cccs2)cc1Cl (stereo not given) | 0.916 | 0.7 | 0.657 | 0.209 | 0.198 | 0.29 | 9.81 | 11 | 11.4 | 14.4 | 32.8 | 32.2 | 15.9 | 17.6 | 16.4 | 64.5 ± 5.7 | 36.8 ± 12 | 8.23 ± 3.5 | 4.03 | 5.85 |  | 49.1 ± 4.8 | 23.5 ± 6.2 | 2.61 ± 0.21
Cc1onc(C(=O)N2CCN(C(c3ccc(Cl)cc3)c3ccc(Cl)cc3)CC2)c1[N+](=O)[O-] | 0.903 | 0.945 | 0.883 | 0.853 | 0.9 | 0.81 | 8.18 | 8.49 | 10.6 | 9.26 | 11.2 | 11.3 | 31.1 | 29.2 | 28.8 | 88.8 ± 4.4 | 92.4 ± 4.1 | 84.1 ± 6.2 | 21 | 19.2 | 16.3 | 107.3 ± 0.95 | 110 ± 4.7 | 107 ± 4.3
Cn1c(=O)n(-c2ccc(C(C)(C)C#N)cc2)c2c3cc(-c4cnc5ccccc5c4)ccc3ncc21 | 0.853 | 0.819 | 0.802 | 0.83 | 0.788 | 0.765 | 11.8 | 12.3 | 12.8 | 12.8 | 12.6 | 12.8 | 31.4 | 28.4 | 27.6 | 68.1 ± 3.9 | 62.4 ± 1.9 | 63.2 ± 3.4 | 23.9 | 22.6 | 29.4 | 71.3 ± 4.7 | 70.8 ± 2.6 | 68.2 ± 2.1
CCCCCC[C@H]1C(=O)O[C@H](C)[C@H](NC(=O)c2cccc(NC=O)c2O)C(=O)O[C@@H](C)[C@@H]1OC(=O)CC(C)C | 0.8 | 0.81 | 0.802 | 0.8 | 0.783 | 0.831 | 12.7 | 13.2 | 12.9 | 12.9 | 12.8 | 12.2 | 38 | 38 | 38.3 | 54.1 ± 5.4 | 59.2 ± 1.6 | 56.2 ± 3.1 | 21.6 | 23.5 | 22.4 | 65.6 ± 6.7 | 69.4 ± 4 | 66.1 ± 3
COC(=O)[C@]1(C)CC[C@]2(C)CC[C@]3(C)C4=CC=C5C(=CC(=O)C(O)=C5C)[C@]4(C)CC[C@@]3(C)[C@@H]2C1 | 0.0681 | 0.0621 | 0.0626 | 0.0644 | 0.0539 | 0.117 | 24.2 | 33.5 | 32.8 | 33.4 | 33.5 | 27.7 | 11.3 | 11.9 | 14.2 | 5.12 ± 0.81 | 1.29 ± 0.58 | 0.733 ± 0.056 | 0.695 | 0.536 |  | 9.07 ± 0.87 | 4.42 ± 1.3 | 3.06 ± 0.32
